Literature values, collected in patent publication US11166956B2, “Combinations of PDE1 inhibitors and NEP inhibitors” (INTRA-CELLULAR THERAPIES, INC., priority 2014, dated 2021).
One block for each compound: values may come before it.

Experiments:
[1] = target: NEP (Homo sapiens, UniProt P08473)
[2] = test system: PDE1
[3] = test system: NEP and ACE; conditions: clinical studies

Chain of NEP (P08473 whole entry): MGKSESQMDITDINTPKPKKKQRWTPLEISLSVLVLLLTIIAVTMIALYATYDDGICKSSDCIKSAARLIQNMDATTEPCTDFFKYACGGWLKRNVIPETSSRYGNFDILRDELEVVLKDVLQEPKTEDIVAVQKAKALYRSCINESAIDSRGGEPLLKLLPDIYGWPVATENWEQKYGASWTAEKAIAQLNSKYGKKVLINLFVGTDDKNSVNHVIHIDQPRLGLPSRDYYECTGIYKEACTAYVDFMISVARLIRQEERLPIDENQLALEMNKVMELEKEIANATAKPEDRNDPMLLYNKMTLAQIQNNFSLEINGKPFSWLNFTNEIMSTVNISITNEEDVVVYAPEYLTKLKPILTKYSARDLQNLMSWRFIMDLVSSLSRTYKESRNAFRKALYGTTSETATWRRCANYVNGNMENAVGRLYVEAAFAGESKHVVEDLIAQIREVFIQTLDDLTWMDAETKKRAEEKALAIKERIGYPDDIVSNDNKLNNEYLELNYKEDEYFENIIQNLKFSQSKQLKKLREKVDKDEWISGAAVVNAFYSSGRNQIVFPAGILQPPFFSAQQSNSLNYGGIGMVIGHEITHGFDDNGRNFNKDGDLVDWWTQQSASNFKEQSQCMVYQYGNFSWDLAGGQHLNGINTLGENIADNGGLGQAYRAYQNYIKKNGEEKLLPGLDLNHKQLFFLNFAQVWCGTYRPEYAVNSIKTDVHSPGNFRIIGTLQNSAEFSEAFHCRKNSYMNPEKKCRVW

plasma ANP and cGMP levels ([1]; in vivo): dose-dependent increase
SMILES: COCCOC[C@H](CC1(C(=O)N[C@H]2CC[C@@H](C(=O)O)CC2)CCCC1)C(=O)Oc1ccc2c(c1)CCC2 [Candoxatril]
blood-pressure lowering effect ([1]; in vivo): does not produce a stable blood-pressure lowering effect | levels of endothelin ([1]; patients with heart failure): increase levels of endothelin significantly

SMILES: COc1cc2c(c(O)c1OC)C(=O)C[C@@H](c1cc(O)ccc1O)O2 [dioclein]
vasodilation [2]: induce PKG-dependent vasodilation

SMILES: O=C(N[C@H]1CCS[C@H]2CCC[C@@H](C(=O)O)N2C1=O)[C@@H](S)Cc1ccccc1 [omapatrilat]
incidence of angioedema [3]: severe incidence of angioedema
